In article PMC3542614 (Cell Death & Disease, 2012):
pIC50: −log10 of the molar value.

Legend:
Bcl-B:Bim complex = biological target: T1, Bcl-B:Bim complex (Homo sapiens, UniProt Q9HD36, C138S/C30S); assay: SPR competition assay: displacement of Bim-BH3 from the Bcl-B:6His-Bim complex; assay type: binding; settings: BH3 peptides between 1.25 and 40 μM
T1 sequence (Q9HD36 12-177 C30S/C138S): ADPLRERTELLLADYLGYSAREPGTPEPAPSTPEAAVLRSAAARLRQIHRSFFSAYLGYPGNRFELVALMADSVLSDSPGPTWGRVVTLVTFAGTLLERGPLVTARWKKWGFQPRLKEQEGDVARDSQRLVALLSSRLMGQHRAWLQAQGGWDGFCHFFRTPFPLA

Bcl-B = settings: cited from earlier work
[1] = biological target: Bcl-BΔC27 (C-terminally truncated Bcl-B, residues A2–A167, cysteines 20 and 128 mutated to serine) (human); assay: SPR

Compound	Displacement of Bim from the Bcl-B:Bim complex (Bcl-B:Bim complex)	Binding to Bcl-B (Bcl-B)	pIC50 [1]
CN(C)CC[C@H](CSc1ccccc1)Nc1ccc(S(=O)(=O)NC(=O)c2ccc(N3CCN(Cc4ccccc4-c4ccc(Cl)cc4)CC3)cc2)cc1[N+](=O)[O-] [ABT-737]	failed to displace Bim	does not bind Bcl-B	
Bax-BH3 peptide			5.18
Bik-BH3 peptide			3.95
